Some test systems named below: SF-295 CNS; TK-10 renal; RXF 393 renal; LOX IMVI melanoma; SR leukemia; HOP-92 NSCLC; OVCAR-5 ovarian; RPMI-8226 leukemia; NCI-H522 lung; HOP-62 NSCLC.
Common to all, as to test: inhibition of tumour cell growth, NCI panel, 48 h

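How tested: cells in 96-well plates exposed to compound for 48 hours at five concentrations. GI50 is the concentration that inhibits growth by half. The concentration for full growth arrest is given as TGI.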

Turning to `O=S(=O)(SCc1ccccc1)C(c1ccccc1)c1ccccc1`, the TGI in the experiment with SF-295 CNS is above 100 µM; with TK-10 renal, above 100 µM; in the experiment on RXF 393 renal, 68 µM; in the experiment on LOX IMVI melanoma, above 100 µM; in the experiment on SR leukemia, 74.6 µM; in the experiment on HOP-92 NSCLC it was 35.5 µM. The TGI in the experiment with OVCAR-5 ovarian is above 100 µM; in the experiment with RPMI-8226 leukemia, 85.6 µM; with NCI-H522 lung, 57.8 µM; with HOP-62 NSCLC, above 100 µM.
`O=[N+]([O-])/C=C/c1cc2ccccc2[nH]1`: the TGI in the experiment on SF-295 CNS worked out at 43.9 µM; in the experiment with TK-10 renal, 32.2 µM; in the experiment with RXF 393 renal it was 26.6 µM; in the experiment with LOX IMVI melanoma, 29.5 µM; with SR leukemia, 26.8 µM; with HOP-92 NSCLC, 43.5 µM. Further, the TGI with OVCAR-5 ovarian is 37.1 µM; in the experiment on RPMI-8226 leukemia it was 9.85 µM; in the experiment with NCI-H522 lung, 24.2 µM; in the experiment on HOP-62 NSCLC, 32.4 µM.
Consider `CN1CCN(c2ccc(Nc3nc(N)c(C(=O)c4ccc5c(c4)OCCO5)s3)cc2)CC1`, for which the GI50 is 3.65 µM with SF-295 CNS; 3.14 µM with TK-10 renal; 1.71 µM in the experiment with RXF 393 renal; 3.2 µM in the experiment with LOX IMVI melanoma; 2.02 µM in the experiment on SR leukemia; 0.204 µM in the experiment with HOP-92 NSCLC. Further, the GI50 in the experiment on OVCAR-5 ovarian was 2.86 µM; with RPMI-8226 leukemia, 3.85 µM; in the experiment on NCI-H522 lung, 4.32 µM; with HOP-62 NSCLC, 5.18 µM. Besides, the TGI came out at 10 µM in the experiment with SF-295 CNS; 10.1 µM in the experiment on TK-10 renal; 5.71 µM in the experiment on RXF 393 renal; 7.21 µM with LOX IMVI melanoma; 12.7 µM in the experiment with SR leukemia; 3.5 µM in the experiment on HOP-92 NSCLC. Besides, the TGI was 8.48 µM in the experiment with OVCAR-5 ovarian, 11.6 µM with RPMI-8226 leukemia, 9.84 µM with NCI-H522 lung and 13.2 µM with HOP-62 NSCLC.
Regarding `COc1ccc(C(=O)C(c2ccc(OC)cc2)C2OC(=O)C(Cl)=C2Cl)cc1` (stereo not given), the TGI in the experiment on SF-295 CNS, in the experiment on TK-10 renal, in the experiment with RXF 393 renal, with LOX IMVI melanoma, in the experiment on SR leukemia and with HOP-92 NSCLC was above 100 µM in each case. Besides, the TGI with OVCAR-5 ovarian, with RPMI-8226 leukemia, with NCI-H522 lung and in the experiment on HOP-62 NSCLC was above 100 µM in each case.
As to `CC(C)CC(=O)Nc1n[nH]c2c1CN(C(=O)C1CCN(C)CC1)C2(C)C`, the GI50 in the experiment on SF-295 CNS was 1.35 µM; in the experiment with TK-10 renal, 2.81 µM; in the experiment with RXF 393 renal, 1.22 µM; in the experiment with LOX IMVI melanoma it was 0.209 µM; in the experiment on SR leukemia it was 0.135 µM; with HOP-92 NSCLC, 0.451 µM. The GI50 with OVCAR-5 ovarian is 1.9 µM; in the experiment with RPMI-8226 leukemia, 0.506 µM; in the experiment on NCI-H522 lung, 0.467 µM; in the experiment with HOP-62 NSCLC it was 1.2 µM. The TGI in the experiment on SF-295 CNS was above 10 µM; in the experiment on TK-10 renal, above 10 µM; in the experiment with RXF 393 renal it was 4.04 µM; in the experiment on LOX IMVI melanoma it was 8.63 µM; in the experiment with SR leukemia it was 2.59 µM; with HOP-92 NSCLC, 7.54 µM. For the same molecule, the TGI in the experiment with OVCAR-5 ovarian was above 10 µM; with RPMI-8226 leukemia, 5.97 µM; with NCI-H522 lung, 3.99 µM; in the experiment on HOP-62 NSCLC it was above 10 µM.
`COc1ccc(Cc2cc3c(cc2OCC(=O)O)OCO3)cc1`: the TGI in the experiment with SF-295 CNS, with TK-10 renal, in the experiment on RXF 393 renal, in the experiment on LOX IMVI melanoma, in the experiment with SR leukemia and in the experiment with HOP-92 NSCLC was above 100 µM in each case. Also, the TGI in the experiment on OVCAR-5 ovarian, with RPMI-8226 leukemia, in the experiment with NCI-H522 lung and in the experiment with HOP-62 NSCLC was above 100 µM each time.
Consider `C[C@@H]1Cc2c([nH]c3ccccc23)[C@@H](c2c(F)cc(NC3CN(CCCF)C3)cc2F)N1CC(F)(F)CO`, for which the GI50 is 2.25 µM in the experiment on SF-295 CNS; 14.4 µM in the experiment with TK-10 renal; 4.38 µM in the experiment on RXF 393 renal; 1.75 µM in the experiment with LOX IMVI melanoma; 3.83 µM in the experiment with SR leukemia; 1.15 µM in the experiment on HOP-92 NSCLC. The GI50 in the experiment on OVCAR-5 ovarian was 14.1 µM; in the experiment with RPMI-8226 leukemia it was 2.82 µM; in the experiment with NCI-H522 lung it was 4.16 µM; in the experiment on HOP-62 NSCLC, 13.6 µM. In addition, the TGI in the experiment with SF-295 CNS is 5.21 µM; in the experiment with TK-10 renal, 29.3 µM; in the experiment with RXF 393 renal, 17 µM; in the experiment with LOX IMVI melanoma it was 3.49 µM; with SR leukemia it was above 100 µM; in the experiment with HOP-92 NSCLC it was 6.36 µM. Besides, the TGI in the experiment with OVCAR-5 ovarian turned out to be 27.9 µM; with RPMI-8226 leukemia it was 14.1 µM; in the experiment with NCI-H522 lung it was 16.7 µM; in the experiment on HOP-62 NSCLC it was 31.1 µM.
In the case of `CCn1cc(-c2ccnc3[nH]ccc23)c(-c2cccc(NC(=O)Nc3ccc(OCc4ccccc4)cc3)c2)n1`, the GI50 in the experiment on SF-295 CNS is 4.55 µM; with TK-10 renal, 24.8 µM; in the experiment with RXF 393 renal, 1.28 µM; in the experiment with LOX IMVI melanoma, 6.01 µM; in the experiment on SR leukemia, 7.25 µM; in the experiment with HOP-92 NSCLC it was above 25 µM. For the same molecule, the GI50 was 22.1 µM in the experiment with OVCAR-5 ovarian, 4.19 µM in the experiment on RPMI-8226 leukemia, 2.98 µM in the experiment with NCI-H522 lung and above 14.9 µM in the experiment with HOP-62 NSCLC. Further, the TGI was above 25 µM in the experiment with SF-295 CNS; above 25 µM in the experiment with TK-10 renal; 7.88 µM in the experiment with RXF 393 renal; above 25 µM with LOX IMVI melanoma; above 25 µM in the experiment on SR leukemia; above 25 µM with HOP-92 NSCLC. The TGI in the experiment on OVCAR-5 ovarian, with RPMI-8226 leukemia, with NCI-H522 lung and in the experiment on HOP-62 NSCLC was above 25 µM each time.
